assay: HCV replicon assay (luciferase reporter, ET cell line); type: cell-based; details: Hepatitis C virus, HCV replicon luciferase activity in ET cells
Procedure, shortened: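 ET cells carry a stable luciferase-ubiquitin-neo/NS3-5B subgenomic HCV replicon with adaptive mutations. Compounds (0.1 nM to […], 0.5% DMSO) were added 24 h after plating, and luciferase was read 48-72 h later. EC50 came from 10-point 2-fold dilutions fitted to a Hill equation; TC50 was measured in parallel by WST-1.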

Point of comparison: `CS(=O)(=O)NC1CN(C(=O)c2nc3c(C(F)(F)F)cc(-c4cn[nH]c4)cn3c2Cl)C1` [Compound 521, N-{1-[3-Chloro-6-(1H-pyrazol-4-yl)-8-trifluoromethyl-imidazo[1,2-a]pyridine-2-carbonyl]-azetidin-3-yl}-methanesulfonamide], inhibition at 10 µM 72.8%. Against it:
- O=C(c1nc2c(C(F)(F)F)cc(-c3ccoc3)cn2c1Cl)N1CCC(n2c(=O)[nH]c3ccccc32)CC1 [Compound 552, 1-[1-(3-Chloro-6-furan-3-yl-8-trifluoromethyl-imidazo[1,2-a]pyridine-2-carbonyl)-piperidin-4-yl]-1,3-dihydro-benzoimidazol-2-one] — lower, 6%
- O=C(c1nc2c(C(F)(F)F)cc(-c3ccoc3)cn2c1Cl)N1CC(NS(=O)(=O)c2ccccc2F)C1 [Compound 494, N-[1-(3-Chloro-6-furan-3-yl-8-trifluoromethyl-imidazo[1,2-a]pyridine-2-carbonyl)-azetidin-3-yl]-2-fluoro-benzenesulfonamide] — higher, 88.5%
- O=C(NCc1cccs1)c1nn2c(I)cc(-c3ccccc3)cc2c1Cl [Compound 121, 3-Chloro-7-iodo-5-phenyl-pyrazolo[1,5-a]pyridine-2-carboxylic Acid (thiophen-2-ylmethyl)-amide] — higher, 73.9%
- Cc1n[nH]cc1-c1cc(C(F)(F)F)c2nc(C(=O)N3CCC(c4cccc(F)c4)C3)c(Cl)n2c1 (centres unmarked) [Compound 625, [3-Chloro-6-(3-methyl-1H-pyrazol-4-yl)-8-trifluoromethyl-imidazo[1,2-a]pyridin-2-yl]-[3-(3-fluoro-phenyl)-pyrrolidin-1-yl]-methanone] — lower, 59.8%
- O=C(c1nc2c(C(F)(F)F)cc(-c3ccco3)cn2c1Cl)N1CCC(Cc2ccccc2)C1 (centres unmarked) [Compound 326, (3-Benzyl-pyrrolidin-1-yl)-(3-chloro-6-furan-2-yl-8-trifluoromethyl-imidazo[1,2-a]pyridin-2-yl)-methanone] — lower, 66.7%
- O=C(c1nc2c(C(F)(F)F)cc(-c3ccoc3)cn2c1Cl)N1CC=C(c2c[nH]cn2)CC1 [Compound 558, (3-Chloro-6-furan-3-yl-8-trifluoromethyl-imidazo[1,2-a]pyridin-2-yl)-[4-(1H-imidazol-4-yl)-3,6-dihydro-2H-pyridin-1-yl]-methanone] — higher, 89.3%
- COC(=O)c1cc(C(F)(F)F)c2nc(C(=O)NCc3cccs3)c(Cl)n2c1 [Compound 312, 3-Chloro-2-[(thiophen-2-ylmethyl)-carbamoyl]-8-trifluoromethyl-imidazo[1,2-a]pyridine-6-carboxylic Acid Methyl Ester] — higher, 76.2%
- O=C(NCC1CC1)c1nc2c(C(F)(F)F)cc(-c3ccco3)cn2c1Cl [Compound 169, 3-Chloro-6-furan-2-yl-8-trifluoromethyl-imidazo[1,2-a]pyridine-2-carboxylic acid cyclopropylmethyl-amide] — lower, 50.3%
- CC(NC(=O)c1nc2c(C(F)(F)F)cc(-c3ccco3)cn2c1Cl)c1cccs1 (centres unmarked) [Compound 162, 3-Chloro-6-furan-2-yl-8-trifluoromethyl-imidazo[1,2-a]pyridine-2-carboxylic acid (1-thiophen-2-yl-ethyl)-amide] — lower, 44.2%
- O=C(NC1CN(C(=O)Cc2ccccc2)C1)c1nc2c(C(F)(F)F)cc(-c3ccoc3)cn2c1Cl [Compound 514, 3-Chloro-6-furan-3-yl-8-trifluoromethyl-imidazo[1,2-a]pyridine-2-carboxylic Acid (1-phenylacetyl-azetidin-3-yl)-amide] — lower, 6.6%
- C#Cc1cc(C(F)(F)F)c2nc(C(=O)NCc3cccs3)c(Cl)n2c1 [Compound 297, 3-Chloro-6-ethynyl-8-trifluoromethyl-imidazo[1,2-a]pyridine-2-carboxylic Acid (thiophen-2-ylmethyl)-amide] — lower, 29.3%
- O=C(NCc1cccs1)c1nn2c(I)cc(-c3ccccc3)cc2c1Br [Compound 120, 3-Bromo-7-iodo-5-phenyl-pyrazolo[1,5-a]pyridine-2-carboxylic Acid (thiophen-2-ylmethyl)-amide] — lower, 66.6%
- O=C(NCc1cccs1)c1cc2cc(-c3ccco3)cc(C(F)(F)Cl)n2n1 [Compound 133, 7-(Chloro-difluoro-methyl)-5-furan-2-yl-pyrazolo[1,5-a]pyridine-2-carboxylic Acid (thiophen-2-ylmethyl)-amide] — higher, 99.8%
- O=C(NCc1ccc(-c2ccccn2)s1)c1nc2c(C(F)(F)F)cc(-c3ccco3)cn2c1Cl [Compound 219, 3-Chloro-6-furan-2-yl-8-trifluoromethyl-imidazo[1,2-a]pyridine-2-carboxylic Acid (5-pyridin-2-yl-thiophen-2-ylmethyl)-amide] — lower, 25.4%
- O=C(NCc1cccs1)c1nc2c(Cl)cc(-c3ccccc3)cn2c1Br [Compound 369, 3-Bromo-8-chloro-6-phenyl-imidazo[1,2-a]pyridine-2-carboxylic Acid (thiophen-2-ylmethyl)-amide] — higher, 88%
- O=C(c1nc2c(C(F)(F)F)cc(-c3ccccc3)cn2c1Cl)N1CCC(c2cccc(F)c2)C1 (centres unmarked) [Compound 641, (3-Chloro-6-phenyl-8-trifluoromethyl-imidazo[1,2-a]pyridin-2-yl)-[3-(3-fluoro-phenyl)-pyrrolidin-1-yl]-methanone] — higher, 80.9%
- O=C(c1nc2c(C(F)(F)F)cc(-c3ccoc3)cn2c1Cl)N1CC=C(c2nccs2)C1 [Compound 428, (3-Chloro-6-furan-3-yl-8-trifluoromethyl-imidazo[1,2-a]pyridin-2-yl)-(3-thiazol-2-yl-2,5-dihydro-pyrrol-1-yl)-methanone] — higher, 99.9%
- Nc1nc(-c2cc(C(F)(F)F)c3nc(C(=O)N4CCC(c5cccc(F)c5)C4)c(Cl)n3c2)cs1 (centres unmarked) [Compound 643, 2[6-(2-Amino-thiazol-4-yl)-3-chloro-8-trifluoromethyl-imidazo[1,2-a]pyridin-2-yl]-[3-(3-fluoro-phenyl)-pyrrolidin-1-yl]-methanone] — higher, 74.5%
- O=C(c1cn2cc(-c3cn[nH]c3)cc(C(F)(F)F)c2n1)N1CCC(c2cccc(F)c2)C1 (centres unmarked) [Compound 378, [3-(3-Fluoro-phenyl)-pyrrolidin-1-yl]-[6-(1H-pyrazol-4-yl)-8-trifluoromethyl-imidazo[1,2-a]pyridin-2-yl]-methanone] — higher, 86.4%
- O=C(c1nc2c(C(F)(F)F)cc(-c3ccoc3)cn2c1Cl)N1CCC=C(c2ccccc2F)C1 [Compound 591, (3-Chloro-6-furan-3-yl-8-trifluoromethyl-imidazo[1,2-a]pyridine-2-yl)-[5-(2-fluoro-phenyl)-3,6-dihydro-2H-pyridin-1-yl]-methanone] — higher, 96.9%
- Cc1ccccc1C1CCN(C(=O)c2nc3c(C(F)(F)F)cc(-c4ccoc4)cn3c2Cl)CC1 [Compound 542, (3-Chloro-6-furan-3-yl-8-trifluoromethyl-imidazo[1,2-a]pyridin-2-yl)-(4-o-tolyl-piperidin-1-yl)-methanone] — lower, 72.4%
- O=C(c1nc2c(C(F)(F)F)cc(-c3ccoc3)cn2c1Cl)N1CCC(n2cnc3ccccc32)CC1 [Compound 605, (4-Benzoimidazol-1-yl-piperidin-1-yl)-(3-chloro-6-furan-3-yl-8-trifluoromethyl-imidazo[1,2-a]pyridin-2-yl)-methanone] — lower, 3.1%
- O=C(NC(c1ccccc1)c1cccs1)c1nc2c(C(F)(F)F)cc(-c3ccoc3)cn2c1Cl (centres unmarked) [Compound 602, 3-Chloro-6-furan-3-yl-8-trifluoromethyl-imidazo[1,2-a]pyridine-2-carboxylic Acid (phenyl-thiophen-2-yl-methyl)-amide] — higher, 90.5%
- O=C(c1nc2c(C(F)(F)F)cc(-c3ccoc3)cn2c1Cl)N1CC=C(c2c(F)cccc2F)CC1 [Compound 564, (3-Chloro-6-furan-3-yl-8-trifluoromethyl-imidazo[1,2-a]pyridin-2-yl)-[4-(2,6-difluoro-phenyl)-3,6-dihydro-2H-pyridin-1-yl)-methanone] — higher, 99%
- O=C(NCc1cccs1)c1nc2c(/C=C/c3ccccc3)cc(-c3ccccc3)cn2c1Cl [Compound 359, 3-Chloro-6-phenyl-8-styryl-imidazo[1,2-a]pyridine-2-carboxylic Acid (thiophen-2-ylmethyl)-amide] — higher, 100%
- C[C@@H](CNC(=O)c1nc2c(C(F)(F)F)cc(-c3ccoc3)cn2c1Cl)c1ccccc1 (stereo in doubt) [Compound 413, 3-Chloro-6-furan-3-yl-8-trifluoromethyl-imidazo[1,2-a]pyridine-2-carboxylic Acid (2-phenyl-propyl)-amide] — higher, 82.8%
- O=C(NCc1cccc(N2CCOCC2)c1)c1nc2c(C(F)(F)F)cc(-c3ccco3)cn2c1Cl [Compound 213, 3-Chloro-6-furan-2-yl-8-trifluoromethyl-imidazo[1,2-a]pyridine-2-carboxylic Acid 3-morpholin-4-yl-benzylamide] — lower, 2.7%
- O=C(NCCc1cccs1)c1nc2c(C(F)(F)F)cc(-c3ccco3)cn2c1Cl [Compound 185, 3-Chloro-6-furan-2-yl-8-trifluoromethyl-imidazo[1,2-a]pyridine-2-carboxylic acid (2-thiophen-2-yl-ethyl)-amide] — higher, 95.7%
- O=C(NCc1ccccc1F)c1nc2c(C(F)(F)F)cc(-c3ccoc3)cn2c1Cl [Compound 402, 3-Chloro-6-furan-3-yl-8-trifluoromethyl-imidazo[1,2-a]pyridine-2-carboxylic Acid-2-fluoro-benzylamide] — higher, 94.9%
- O=C(c1nc2c(C(F)(F)F)cc(-c3cn[nH]c3)cn2c1Cl)N1CCC(c2ccccc2F)CC1 [Compound 606, [3-Chloro-6-(1H-pyrazol-4-yl)-8-trifluoromethyl-imidaz [1,2-a]pyridin-2-yl]-[4-(2-fluoro-phenyl)-piperidin-1-yl]-methanone] — higher, 87.9%
- O=C(c1nc2c(C(F)(F)F)cc(-c3cn[nH]c3)cn2c1Cl)N1CCC(c2cccs2)C1 (centres unmarked) [Compound 441, [3-Chloro-6-(1H-pyrazol-4-yl)-8-trifluoromethyl-imidazo[1,2-a]pyridin-2-yl]-(3-thiophen-2-yl-pyrrolidin-1-yl)-methanone] — higher, 97.6%

From US20120121540A1 (priority 2007, published 2012)
